{
  "source": "patent US20250230193A1",
  "about": "“CYCLIC COMPOUND HAVING SELECTIVE KRAS INHIBITORY EFFECT ON HRAS AND NRAS” (CHUGAI SEIYAKU KABUSHIKI KAISHA, priority 2022, published 2025)",
  "key": {"[1]": {"molecular_target": "GDP-bound HRAS wild-type protein (Homo sapiens, UniProt P01112)", "sequence (P01112 whole entry)": "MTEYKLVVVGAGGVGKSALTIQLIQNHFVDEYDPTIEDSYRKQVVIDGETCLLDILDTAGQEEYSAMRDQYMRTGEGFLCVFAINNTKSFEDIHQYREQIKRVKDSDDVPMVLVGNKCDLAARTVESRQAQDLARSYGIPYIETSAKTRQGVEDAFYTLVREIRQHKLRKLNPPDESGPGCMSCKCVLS", "assay": "Binding to HRAS by surface plasmon resonance (SPR), Single Cycle Kinetics", "details": "for HRAS/KRAS (ratio of KD value for HRAS to KD value for KRAS) / HRAS/KRAS (ratio of KD value with respect to HRAS to KD value with respect to KRAS): GDP-bound HRAS wild-type vs GDP-bound KRAS wild-type"}, "[2]": {"molecular_target": "GDP-bound NRAS wild-type protein (Homo sapiens, UniProt P01111)", "sequence (P01111 whole entry)": "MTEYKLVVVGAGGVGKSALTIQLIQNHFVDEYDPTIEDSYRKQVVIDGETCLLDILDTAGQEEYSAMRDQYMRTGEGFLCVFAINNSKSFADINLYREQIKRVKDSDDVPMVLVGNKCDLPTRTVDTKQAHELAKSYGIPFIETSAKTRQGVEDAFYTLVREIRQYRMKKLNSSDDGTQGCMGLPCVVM", "assay": "Binding to NRAS by surface plasmon resonance (SPR), Single Cycle Kinetics", "details": "for NRAS/KRAS (ratio of KD value for NRAS to KD value for KRAS) / NRAS/KRAS (ratio of KD value with respect to NRAS to KD value with respect to KRAS): GDP-bound NRAS wild-type vs GDP-bound KRAS wild-type"}, "[3]": {"details": "KD ratio HRAS/KRAS, class symbols"}, "[4]": {"details": "KD ratio NRAS/KRAS, class symbols"}},
  "note": "*1 amine or outer side, *2 acyl side, *3 side chain or, on linkers, in order; H or OH if unused. Where a SMILES comes first, the peptide text is derived from it. Bridges are numbered along the chain shown (N, C = ends). [ ]: non-standard residue; d: D form. The star is where a group is joined. hPhe(3,5-F2-4-CF3) = N[C@@H](CCc1cc(F)c(C(F)(F)F)c(F)c1)C(=O)O; X21 = O=C([C@H](Cc1ccc(C(F)(F)F)cc1)N(CC1CCCC1)[*:1])[*:2]; hPhe(3-Cl-4-CF3) = N[C@@H](CCc1ccc(C(F)(F)F)c(Cl)c1)C(=O)O; NPrPhe(4-CF3) = CCCN[C@@H](Cc1ccc(C(F)(F)F)cc1)C(=O)O; NPrAsp = CCCN([C@@H](CC(=O)[*:3])C(=O)[*:2])[*:1]; NMeAbu(4,4,4-F3) = CN[C@@H](CC(F)(F)F)C(=O)O; NMeGly(cPent) = CN[C@H](C(=O)O)C1CCCC1; NMeD = CN[C@@H](CC(=O)O)C(=O)O; NMeL = CN[C@@H](CC(C)C)C(=O)O; NMeNva = CCC[C@H](NC)C(=O)O; Morpholide = C1CN(*)CCO1; NMeA = CN[C@@H](C)C(=O)O; Ac5c = NC1(C(=O)O)CCCC1; Aze = O=C(O)[C@@H]1CCN1; Ac4c = NC1(C(=O)O)CCC1; Sar = CNCC(=O)O",
  "data": [
    {"smiles": "CCC[C@H]1C(=O)N[C@@H]([C@@H](C)CC)C(=O)N(C)CC(=O)N(C)CC(=O)N(CCC)[C@@H](Cc2ccc(C(F)(F)F)cc2)C(=O)N(C)CC(=O)N[C@@H](CCc2ccc(C(F)(F)F)c(Cl)c2)C(=O)N2CCC[C@H]2C(=O)NC2(CCC2)C(=O)N(C)[C@@H](C2CCCC2)C(=O)N(CCC)[C@H](C(=O)N2CCOCC2)CC(=O)N1C", "note": "[PP1954] ([NMeNva]I[Sar][Sar][NPrPhe(4-CF3)][Sar][hPhe(3-Cl-4-CF3)]P[Ac4c][NMeGly(cPent)][NPrAsp]-Morpholide; lactam N-11)", "values": [
      {"measurement": "HRAS/KRAS (ratio of KD value for HRAS to KD value for KRAS)", "setting": "[1]; SPR", "value": "B (a compound having 3 or more and less than 10 is denoted as B)"},
      {"measurement": "NRAS/KRAS (ratio of KD value for NRAS to KD value for KRAS)", "setting": "[2]; SPR", "value": "B (a compound having 3 or more and less than 10 is denoted as B)"}
    ]},
    {"smiles": "CCOC[C@H]1C(=O)N[C@@H]([C@@H](C)CC)C(=O)N(C)CC(=O)N(C)[C@H]2C/C=C\\CCN(C2=O)[C@@H](Cc2ccc(C)cc2)C(=O)N(C)CC(=O)N[C@@H](CCc2cc(F)c(C(F)(F)F)c(F)c2)C(=O)N2C[C@H](OCC)C[C@H]2C(=O)NC2(CC(C)(C)C2)C(=O)N(C)[C@@H](C2CCCC2)C(=O)N(C)[C@H](C(=O)N(CC)CC)CC(=O)N1C", "note": "[PP2408]", "values": [
      {"measurement": "HRAS/KRAS (ratio of KD value with respect to HRAS to KD value with respect to KRAS)", "setting": "[1]; SPR", "value": "A (a compound having 10 or more and less than 20 is denoted as A)"},
      {"measurement": "NRAS/KRAS (ratio of KD value with respect to NRAS to KD value with respect to KRAS)", "setting": "[2]; SPR", "value": "A (a compound having 10 or more and less than 20 is denoted as A)"}
    ]},
    {"smiles": "CCC[C@H]1C(=O)N[C@@H]([C@@H](C)CC)C(=O)N(C2CC2)CC(=O)N(C)[C@H]2C/C=C\\CCN(C2=O)[C@@H](CC2CCC(F)(F)CC2)C(=O)N(C)CC(=O)N[C@@H](CCc2ccc(Cl)c(Cl)c2)C(=O)N2C[C@H](OC(C)C)C[C@H]2C(=O)NC2(CC(C)(C)C2)C(=O)N(C)[C@@H](C2CCCC2)C(=O)N(C)[C@H](C(=O)N(C)C)CC(=O)N1C", "note": "[PP2521]", "values": [
      {"measurement": "HRAS/KRAS (ratio of KD value with respect to HRAS to KD value with respect to KRAS)", "setting": "[1]; SPR", "value": "A (a compound having 10 or more and less than 20 is denoted as A)"},
      {"measurement": "NRAS/KRAS (ratio of KD value with respect to NRAS to KD value with respect to KRAS)", "setting": "[2]; SPR", "value": "A (a compound having 10 or more and less than 20 is denoted as A)"}
    ]},
    {"smiles": "CCCN1C(=O)CN(C)C(=O)CN(C)C(=O)[C@H]([C@@H](C)CC)NC(=O)[C@H](CC(C)C)N(C)C(=O)C[C@@H](C(=O)N(C)C)N(C)C(=O)[C@H](CC(F)(F)F)N(C)C(=O)C2(CCCC2)NC(=O)[C@@H]2CCCN2C(=O)[C@H](CCc2cc(F)c(C(F)(F)F)c(F)c2)NC(=O)CN(C)C(=O)[C@@H]1Cc1ccc(C(F)(F)F)cc1", "note": "[PP0746] ([NMeL]I[Sar][Sar][NPrPhe(4-CF3)][Sar][hPhe(3,5-F2-4-CF3)]P[Ac5c][NMeAbu(4,4,4-F3)][NMeD]-NMe2; lactam N-11)", "values": [
      {"measurement": "HRAS/KRAS (ratio of KD value with respect to GDP-bound HRAS wild-type protein to KD value with respect to KRAS)", "setting": "[1]; KD ratio HRAS/KRAS, SPR", "value": "C (A compound having a KD ratio of 0.1 or more and less than 3 is denoted as C)"},
      {"measurement": "NRAS/KRAS (ratio of KD value with respect to GDP-bound NRAS wild-type protein to KD value with respect to KRAS)", "setting": "[2]; KD ratio NRAS/KRAS, SPR", "value": "B (a compound having 3 or more and less than 10 is denoted as B)"}
    ]},
    {"smiles": "CCC[C@H]1C(=O)N[C@@H]([C@@H](C)CC)C(=O)N(C2CC2)CC(=O)N(C)[C@H]2C/C=C\\CCN(C2=O)[C@@H](CC2CCC(F)(F)CC2)C(=O)N(C)CC(=O)N[C@@H](CCc2ccc(Cl)c(Cl)c2)C(=O)N2C[C@H](OCC)C[C@H]2C(=O)NC2(CC(C)(C)C2)C(=O)N(C)[C@@H](C2CCCC2)C(=O)N(C)[C@H](C(=O)N(C)C)CC(=O)N1C", "note": "[PP2567]", "values": [
      {"measurement": "HRAS/KRAS (ratio of KD value with respect to GDP-bound HRAS wild-type protein to KD value with respect to KRAS)", "setting": "[1]; [3]", "value": "A (a compound having 10 or more and less than 20 is denoted as A)"},
      {"measurement": "NRAS/KRAS (ratio of KD value with respect to GDP-bound NRAS wild-type protein to KD value with respect to KRAS)", "setting": "[2]; [4]", "value": "A (a compound having 10 or more and less than 20 is denoted as A)"}
    ]},
    {"smiles": "CC[C@H](C)[C@@H]1NC(=O)[C@H](C)N(C)C(=O)C[C@@H](C(=O)N(C)C)N(C)C(=O)[C@H](C2CCCC2)N(C)C(=O)C2(CCC2)NC(=O)[C@@H]2CCCN2C(=O)[C@H](CCc2cc(F)c(C(F)(F)F)c(F)c2)NC(=O)CN(C)C(=O)[C@H](Cc2ccc(C(F)(F)F)cc2)N2CCCCC[C@@H](C2=O)N(C)C(=O)CN(C)C1=O", "note": "[PP0470]", "values": [
      {"measurement": "HRAS/KRAS (ratio of KD value with respect to GDP-bound HRAS wild-type protein to KD value with respect to KRAS)", "setting": "[1]; KD ratio HRAS/KRAS, SPR", "value": "B (a compound having 3 or more and less than 10 is denoted as B)"},
      {"measurement": "NRAS/KRAS (ratio of KD value with respect to GDP-bound NRAS wild-type protein to KD value with respect to KRAS)", "setting": "[2]; KD ratio NRAS/KRAS, SPR", "value": "B (a compound having 3 or more and less than 10 is denoted as B)"}
    ]},
    {"smiles": "CCO[C@@H]1C[C@H]2C(=O)NC3(CCC3)C(=O)N(C)[C@@H](C3CCCC3)C(=O)N(C)[C@H](C(=O)N(C)CC)CC(=O)N(C)[C@@H](CC3CCC3)C(=O)N[C@@H]([C@@H](C)CC)C(=O)N(C)CC(=O)N(C)[C@H]3C/C=C\\CCN(C3=O)[C@@H](Cc3ccc(C(F)(F)F)cc3)C(=O)N(C)CC(=O)N[C@@H](CCc3cc(F)c(C(F)(F)F)c(F)c3)C(=O)N2C1", "note": "[PP1667]", "values": [
      {"measurement": "HRAS/KRAS (ratio of KD value for HRAS to KD value for KRAS)", "setting": "[1]; SPR", "value": "A (a compound having 10 or more and less than 20 is denoted as A)"},
      {"measurement": "NRAS/KRAS (ratio of KD value for NRAS to KD value for KRAS)", "setting": "[2]; SPR", "value": "A (a compound having 10 or more and less than 20 is denoted as A)"}
    ]},
    {"smiles": "CCC[C@H]1C(=O)N[C@@H]([C@@H](C)CC)C(=O)N(C)CC(=O)N(C)[C@H]2C/C=C\\CCN(C2=O)[C@@H](Cc2ccc(C)cc2)C(=O)N(C)CC(=O)N[C@@H](CCc2cc(Cl)c3c(ccn3C)c2)C(=O)N2C[C@H](OCC)C[C@H]2C(=O)NC2(CC(C)(C)C2)C(=O)N(C)[C@@H](C(CC)CC)C(=O)N(C)[C@H](C(=O)N(C)C)CC(=O)N1C", "note": "[PP2898]", "values": [
      {"measurement": "HRAS/KRAS (ratio of KD value with respect to GDP-bound HRAS wild-type protein to KD value with respect to KRAS)", "setting": "[1]; [3]", "value": "A (a compound having 10 or more and less than 20 is denoted as A)"},
      {"measurement": "NRAS/KRAS (ratio of KD value with respect to GDP-bound NRAS wild-type protein to KD value with respect to KRAS)", "setting": "[2]; [4]", "value": "A (a compound having 10 or more and less than 20 is denoted as A)"}
    ]},
    {"smiles": "CCCOC[C@H]1C(=O)N[C@@H]([C@@H](C)CC)C(=O)N(C)CC(=O)N(C)[C@H]2C/C=C\\CCN(C2=O)[C@@H](Cc2ccc(C)cc2)C(=O)N(C)CC(=O)N[C@@H](CCc2cc(F)c(C(F)(F)F)c(F)c2)C(=O)N2C[C@H](OCC)C[C@H]2C(=O)NC2(CC(C)(C)C2)C(=O)N(C)[C@@H](CC(C)(C)C)C(=O)N(C)[C@H](C(=O)N(C)C)CC(=O)N1C", "note": "[PP2708]", "values": [
      {"measurement": "HRAS/KRAS (ratio of KD value with respect to GDP-bound HRAS wild-type protein to KD value with respect to KRAS)", "setting": "[1]; [3]", "value": "A (a compound having 10 or more and less than 20 is denoted as A)"},
      {"measurement": "NRAS/KRAS (ratio of KD value with respect to GDP-bound NRAS wild-type protein to KD value with respect to KRAS)", "setting": "[2]; [4]", "value": "A (a compound having 10 or more and less than 20 is denoted as A)"}
    ]},
    {"smiles": "CC[C@H](C)[C@@H]1NC(=O)[C@H](CC(C)C)N(C)C(=O)C[C@@H](C(=O)N2CCOCC2)N(C)C(=O)[C@H](C2CCCC2)N(C)C(=O)C2(CCCC2)NC(=O)[C@@H]2CCCN2C(=O)[C@H](CCc2ccc(C(F)(F)F)c(Cl)c2)NC(=O)CN(C)C(=O)[C@H](Cc2ccc(C(F)(F)F)cc2)N(CC2CCCC2)C(=O)[C@@H]2CCN2C(=O)[C@H](C)N(C)C1=O", "note": "[PP0110] ([NMeL]I[NMeA][Aze][X21][Sar][hPhe(3-Cl-4-CF3)]P[Ac5c][NMeGly(cPent)][NMeD]-Morpholide; lactam N-11)", "values": [
      {"measurement": "HRAS/KRAS (ratio of KD for GDP-bound HRAS wild-type to KD for KRAS)", "setting": "[1]; KD ratio HRAS/KRAS, SPR", "value": "B (a compound having 3 or more and less than 10 is denoted as B)"},
      {"measurement": "NRAS/KRAS (ratio of KD for GDP-bound NRAS wild-type to KD for KRAS)", "setting": "[2]; KD ratio NRAS/KRAS, SPR", "value": "C (A compound having a KD ratio of 0.1 or more and less than 3 is denoted as C)"}
    ]}
  ]
}
